Source: paper PMC7317212 (Chemmedchem, 2020)

Assays:
mGAT1 [1] = target: T1, mGAT1 (Mus musculus, UniProt P31648); assay: MS Binding Assay with NO711 as native MS marker; conditions: for remaining activity at 100 µM: in presence of 100 μM compound, read-out: remaining specific NO711 binding (mGAT1)
T1 construct: expressed in transfected cells; host or cells: HEK293
Experimental: (§1) For compounds with pIC50 ([^3H]GABA uptake assay) or pK i (MS Binding Assays) values close to or above 5.0, these experiments were repeated twice and SEM have been calculated.
MS Binding Assays: The MS Binding Assays were performed with mGAT1 membrane preparations obtained from a stably mGAT1 expressing HEK293 cell line and NO711 as unlabeled marker in competitive binding experiments as previously described in detail.34 In short, test compounds were investigated at 7 concentrations in presence of 10 nM NO 711 in competition experiments. Non specific binding was defined as binding remaining in the presence of 100 mM GABA. Incubation was terminated by transfer of 200 μL per well onto a 96‐well filter plate (Acroprep, glass fibre, 1.0 μm, 350 μL, Pall, Dreieich, Germany) with a 12 channel pipette. After rapid vacuum‐filtration the filters were washed with ice cold 0.9 % NaCl (5×150 μL) and dried at 50 °C for 60 min. Afterwards, the filters were eluted with 100 μL methanol containing [^2H10]NO711 (1.4 nM) as internal standard per well into a deep‐well plate by application of vacuum. This step was repeated twice resulting in a total elution volume of 300 μL. Finally, a volume of 130 μL ammonium formate buffer (10 mM, pH 7.0) was added per well and the generated samples analyzed by LC‐ESI‐MS/MS using a API 3200 as described in detail previously.40

mGAT1 [2] = target: T1, mGAT1; assay: [^3H]GABA uptake assay, HEK293 cells expressing mGAT1; format: cell-based; conditions: HEK293; in presence of 100 μM compound
Experimental: as §1
(§2) [^3H]GABA uptake assays: The [^3H]GABA uptake assays were performed according to Kragler et al.33 Cells were grown in 150 cm^2 plates to a confluence of 70–90 % up to passage 25. After detachment the cells were centrifuged 5 min at 500×g, washed for three times in phosphate buffered saline and, finally, resuspended in Krebs buffer (2.5 mM CaCl2, 1.2 mM MgSO4, 1.2 mM KH2PO4, 4.7 mM KCl, 11 mM glucose, 25 mM Tris, 119 mM NaCl, pH 7.2). The uptake assays were performed with aliquots of the resulting cell suspension (about 100000–200000 cells per well) in a total volume of 250 μl in 96 well 2.2 mL deep well plates. The cells were equilibrated for 25 min in Krebs buffer in the presence of the test compound at 37 °C in a gently shaking water bath. […] After addition of 25 μl of a solution containing [^3H]GABA (2.22 TBq/mmol, ARC, St Louis, MO, USA) and unlabeled GABA in Krebs (final concentration 8 nM [^3H]GABA and 32 nM unlabeled GABA for mGAT1, mGAT3, mGAT4 and 20 nM [^3H]GABA and 20 nM unlabeled GABA for mGAT2) the cells were incubated for further 4 min (mGAT1, mGAT3, mGAT4) or 10 minutes (mGAT2), respectively. The incubation was stopped by filtration through Sartorius MGC micro glass fiber filters pre‐soaked for 1 h in 0.9 % NaCl by means of a Brandell MWXR‐96TI cell harvester (Brandell, Gaithersburg, MD, USA) under reduced pressure. The filters were rinsed two times with cold 0.9 % NaCl and subsequently transferred to 96 well sample plates (Perkin Elmer LAS, Boston, MA, USA). After addition of 200 μl Rotiszint Eco Plus (Roth, Karlsruhe, Germany) per well the radioactivity was determined in a microbeta liquid scintillation counter (Perkin Elmer LAS, Boston, MA, USA). Non‐specific uptake was determined in presence of 10 mM GABA for mGAT1, mGAT3 and mGAT4 or 100 mM GABA for mGAT2, respectively. The results are expressed as means±S.E.M. of at least three separate experiments, each carried out in triplicate.

mGAT2 = target: T2, mGAT2 (Mus musculus, UniProt P31651); assay: [^3H]GABA uptake assay, HEK293 cells expressing mGAT2; format: cell-based; conditions: for remaining activity at 100 µM: HEK293, in presence of 100 μM compound
T2 construct: expressed in transfected cells; host or cells: HEK293
T2 sequence (P31651 1-614): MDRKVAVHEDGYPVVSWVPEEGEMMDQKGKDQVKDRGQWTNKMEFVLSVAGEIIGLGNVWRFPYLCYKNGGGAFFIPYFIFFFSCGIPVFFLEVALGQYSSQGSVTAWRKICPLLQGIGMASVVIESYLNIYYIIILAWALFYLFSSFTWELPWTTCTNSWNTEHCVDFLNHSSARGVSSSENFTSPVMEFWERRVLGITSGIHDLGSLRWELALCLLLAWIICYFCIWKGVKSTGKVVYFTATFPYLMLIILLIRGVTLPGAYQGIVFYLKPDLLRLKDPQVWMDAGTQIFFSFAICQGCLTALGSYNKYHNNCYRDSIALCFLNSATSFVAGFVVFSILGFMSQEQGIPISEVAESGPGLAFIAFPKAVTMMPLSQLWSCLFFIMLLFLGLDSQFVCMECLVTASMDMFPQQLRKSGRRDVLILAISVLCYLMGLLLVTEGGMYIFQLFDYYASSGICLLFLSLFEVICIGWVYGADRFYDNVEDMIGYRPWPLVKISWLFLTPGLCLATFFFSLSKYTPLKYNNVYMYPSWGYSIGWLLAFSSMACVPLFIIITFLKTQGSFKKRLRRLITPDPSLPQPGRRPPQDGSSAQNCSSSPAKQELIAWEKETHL
Experimental: as §1, §2

mGAT3 = target: T3, mGAT3 (Mus musculus, UniProt P31649); assay: [^3H]GABA uptake assay, HEK293 cells expressing mGAT3; format: cell-based; conditions: for remaining activity at 100 µM: HEK293, in presence of 100 μM compound; for IC50: [^3H]GABA uptake, pIC50±SEM
T3 construct: expressed in transfected cells; host or cells: HEK293
T3 sequence (P31649 1-602): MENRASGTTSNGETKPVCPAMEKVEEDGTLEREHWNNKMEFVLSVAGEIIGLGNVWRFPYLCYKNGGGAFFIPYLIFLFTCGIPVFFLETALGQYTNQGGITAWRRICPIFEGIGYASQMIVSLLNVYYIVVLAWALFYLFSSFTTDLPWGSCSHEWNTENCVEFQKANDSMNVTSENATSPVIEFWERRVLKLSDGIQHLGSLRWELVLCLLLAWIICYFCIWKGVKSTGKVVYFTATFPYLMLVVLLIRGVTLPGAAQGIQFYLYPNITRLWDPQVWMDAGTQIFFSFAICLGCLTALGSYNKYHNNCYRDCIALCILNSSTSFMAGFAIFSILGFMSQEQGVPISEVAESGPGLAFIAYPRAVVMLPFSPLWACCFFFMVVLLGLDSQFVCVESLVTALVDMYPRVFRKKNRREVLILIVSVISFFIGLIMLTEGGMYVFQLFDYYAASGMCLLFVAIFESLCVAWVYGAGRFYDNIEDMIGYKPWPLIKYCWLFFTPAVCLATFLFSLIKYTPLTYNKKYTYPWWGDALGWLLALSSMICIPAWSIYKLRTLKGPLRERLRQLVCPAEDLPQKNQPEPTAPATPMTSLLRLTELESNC
Experimental: as §1, §2

mGAT4 = target: T4, mGAT4 (Mus musculus, UniProt P31650); assay: [^3H]GABA uptake assay, HEK293 cells expressing mGAT4; format: cell-based; conditions: for remaining activity at 100 µM: HEK293, in presence of 100 μM compound; for IC50: [^3H]GABA uptake, pIC50±SEM
T4 construct: expressed in transfected cells; host or cells: HEK293
T4 sequence (P31650 1-627): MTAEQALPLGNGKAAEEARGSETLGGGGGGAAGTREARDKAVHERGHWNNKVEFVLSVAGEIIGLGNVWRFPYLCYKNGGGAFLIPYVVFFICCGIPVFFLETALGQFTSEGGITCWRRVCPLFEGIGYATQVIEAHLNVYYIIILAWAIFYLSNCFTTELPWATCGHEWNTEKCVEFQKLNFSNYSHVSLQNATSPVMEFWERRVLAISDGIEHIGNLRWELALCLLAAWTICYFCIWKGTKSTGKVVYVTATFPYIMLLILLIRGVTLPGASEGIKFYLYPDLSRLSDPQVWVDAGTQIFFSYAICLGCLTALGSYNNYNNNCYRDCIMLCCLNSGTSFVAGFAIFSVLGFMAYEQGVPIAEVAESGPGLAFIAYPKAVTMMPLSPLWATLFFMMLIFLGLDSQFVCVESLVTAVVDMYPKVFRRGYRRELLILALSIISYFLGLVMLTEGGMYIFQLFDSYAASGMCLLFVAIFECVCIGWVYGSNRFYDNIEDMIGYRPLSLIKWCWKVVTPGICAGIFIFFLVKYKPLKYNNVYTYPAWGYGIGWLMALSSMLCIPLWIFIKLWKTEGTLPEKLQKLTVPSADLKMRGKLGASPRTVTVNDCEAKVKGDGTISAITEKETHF
Experimental: as §1, §2

| Structure (SMILES) | remaining activity at 100 µM (mGAT1 [1]) [%] | remaining activity at 100 µM (mGAT1 [2]) [%] | remaining activity at 100 µM (mGAT2) [%] | remaining activity at 100 µM (mGAT3) [%] | remaining activity at 100 µM (mGAT4) [%] | Ki (mGAT1 [1]; MS Binding Assay, NO711 marker, pKi±SEM, read-out: pK i mGAT1 (converted)) [µM] | IC50 (mGAT4) [µM] | IC50 (mGAT3) [µM] | IC50 (mGAT2; [^3H]GABA uptake, pIC50±SEM) [µM] |
| --- | --- | --- | --- | --- | --- | --- | --- | --- | --- |
| COc1ccc(C(OCCN2CCCC(C(=O)O)C2)(C(=O)O)c2ccc(OC)cc2)cc1 (racemic) [5 k, rac ‐1‐{2‐[Carboxybis(4‐methoxyphenyl)methoxy]ethyl}piperidine‐3‐carboxylic acid] | 96.9 | 100 | 101 | 94 | 96.5 | – | – | – | – |
| COc1ccc(C(O)(CCCN2CCCC(C(=O)O)C2)c2ccc(OC)cc2)cc1 (racemic) [5 l, rac ‐1‐[4‐Hydroxy‐4,4‐bis(4‐methoxyphenyl)butyl]piperidine‐3‐carboxylic acid] | – | 69.5 | 62.5 | 80.7 | 92 | 32.4 | – | – | – |
| COc1ccc(C(OCCN2CCCC(C(=O)O)C2)(c2ccc(CO)cc2)c2ccc(OC)cc2)cc1 (racemic) [5 m, rac‐1‐(2‐{[4‐(Hydroxymethyl)phenyl]bis[4‐methoxyphenyl]methoxy}‐ethyl)piperidine‐3‐carboxylic acid] | 55 | 78.1 | 91.6 | 58.7 | – | – | 12.6 | – | – |
| COc1ccc(C(OCCN2CCCC(C(=O)O)C2)(c2ccc(CNCC(=O)O)cc2)c2ccc(OC)cc2)cc1 (racemic) [5 n, rac‐ 1‐{2‐[(4‐{[(Carboxymethyl)amino]methyl}phenyl)bis(4‐methoxy‐phenyl)methoxy]ethyl}piperidine‐3‐carboxylic acid] | 86.2 | 81.8 | 96.1 | 90.9 | 72.2 | – | – | – | – |
| COc1ccc(C(OCCN2CCCC(C(=O)O)C2)(c2ccc(CNCCC(=O)O)cc2)c2ccc(OC)cc2)cc1 (racemic) [5 o, rac‐ 1‐{2‐[(4‐{[(2‐Carboxyethyl)amino]methyl}phenyl)bis(4‐methoxy‐phenyl)methoxy]ethyl}piperidine‐3‐carboxylic acid] | 82.3 | 94.4 | 69.5 | 89.1 | 56.3 | – | – | – | – |
| COc1ccc(C(OCCN2CCCC(C(=O)O)C2)(c2ccc(CNC3(C(=O)O)CC3)cc2)c2ccc(OC)cc2)cc1 (racemic) [5 p, rac‐ 1‐{2‐[(4‐{[(1‐Carboxycyclopropyl)amino]methyl}phenyl)bis(4‐methoxyphenyl)methoxy]ethyl}piperidine‐3‐carboxylic acid] | 58.8 | 78.2 | 76 | 69.1 | – | – | 13.2 | – | – |
| COc1ccc(C(OCCN2CCCC(C(=O)O)C2)(c2ccc(CNC(C)(C)C(=O)O)cc2)c2ccc(OC)cc2)cc1 (racemic) [5 q, rac ‐1‐{2‐[(4‐{[(2‐Carboxypropan‐2‐yl)amino]methyl}phenyl)bis(4‐methoxyphenyl)methoxy]ethyl}piperidine‐3‐carboxylic acid] | 77 | 80.7 | 77 | 61.1 | – | – | 45.7 | – | – |
| COc1ccc(C(OCCN2CCCC(C(=O)O)C2)(c2ccc(CN3CCCC3=O)cc2)c2ccc(OC)cc2)cc1 (racemic) [5 r, rac‐ 1‐[2‐(Bis{4‐methoxyphenyl}{4‐[(2‐oxopyrrolidin‐1‐yl)methyl]phenyl}‐methoxy)ethyl]piperidine‐3‐carboxylic acid] | 97 | 76 | 79.7 | 64.2 | – | – | 64.6 | – | – |
| COc1ccc(C(OCCN2CCCC(C(=O)O)C2)(c2ccc(CNCCCC(=O)O)cc2)c2ccc(OC)cc2)cc1 (racemic) [5 s, rac ‐1‐{2‐[(4‐{[(3‐Carboxypropyl)amino]methyl}phenyl)bis(4‐methoxy‐phenyl)methoxy]ethyl}piperidine‐3‐carboxylic acid] | 86.5 | 48.5 | 51.5 | – | – | – | 74.1 | 46.8 | – |
| CCOC(=O)C1CCCN(CCOC(c2ccc(C=O)cc2)(c2ccc(OC)cc2)c2ccc(OC)cc2)C1 (racemic) [12 a, rac‐ Ethyl 1‐{2‐[(4‐formylphenyl)bis(4‐methoxyphenyl)methoxy]ethyl}‐piperidine‐3‐carboxylate] | 85.4 | 55.5 | – | – | 55.9 | – | – | 12.6 | 26.9 |
